# Results taken from patent publication US11905253B2, “Compounds and pharmaceutical compositions for reducing CD95-mediated cell motility” (INSTITUT NATIONAL DE LA SANTE ET DE LA RECHERCHE MEDICALE …, priority 2018, dated 2024).
# pIC50: −log10 of the molar value.
# Legend:
# [1] = target: T1, CD95/PLCγ1 interaction (SH3-PLCg1/CID-CD95) (Homo sapiens, UniProt P19174); assay: Renilla luciferase protein-fragment complementation assay (PCA), SH3-PLCγ1-F1 / CID-CD95-F2; format: cell-based; conditions: luminescence; for pIC50: HEK293T cells, exposed 4 h
# T1 construct: SH3—PLCγ1-F1 or DD-FADD-F1 (inset) was co-transfected into HEK293T cells; expressed in transfected cells; host or cells: HEK293T
# T1 sequence (P19174 791-851): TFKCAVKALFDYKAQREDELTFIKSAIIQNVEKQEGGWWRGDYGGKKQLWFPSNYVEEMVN
# Experimental: (§1) A. SH3—PLCγ1-F1 or DD-FADD-F1 (inset) was co-transfected into HEK293T cells along with whole CID-CD95-F2 or DD-CD95-F2 (inset). After 24 h, cells were exposed for 4 h to different compounds according to the invention at different concentrations and luminescence was assessed. The tested compounds were the compounds number 2, 3, 4, 5, 6, 7, 10, 11, 13 and 14.
# (§2) F1 corresponds to the N-terminal domain of Renilla luciferase enzyme split into two fragments (F1 and F2, F2 being the C-terminal domain—see Stefan, E. et al. Proc Natl Acad Sci USA 104, 16916-21 (2007)). These F1 and F2 domains were co-expressed in HEK cells, whereupon the interaction between CD95-CID and PLCγ1, or CD95-DD and DD-FADD, allowed protein refolding and subsequent recovery of Renilla luciferase activity.
# (§3) CID corresponds to amino acids 175 to 210 of CD95; DD corresponds to amino acids 210 to 303 of CD95.
# (§4) Renilla luciferase-based protein-fragment complementation assay (PCA): HEK293T cells were electroporated with 10 μg DNA using a BTM-830 electroporation generator (BTX Instrument Division, Harvard Apparatus). Transfected cells were cultured for 24 h prior to PCA analyses as previously described (Poissonnier, A. et al., Immunity. 2016, 45, 209-223). Briefly, transfected cells (10^6) were washed and resuspended in 100 μL PBS and placed in OptiPlate-96 plates (Perkin-Elmer, Waltham, Mass., USA). Coelenterazine-h (5 μM, Sigma-Aldrich) was added to each well and Renilla luciferase activity was monitored for the first 10 seconds using Infinite200Pro (Tecan, Männedorf, Switzerland).
# [2] = target: T2, CD95/FADD interaction (DD-FADD/DD-CD95) (Homo sapiens, UniProt P25445+Q13158); assay: Renilla luciferase protein-fragment complementation assay (PCA), DD-FADD-F1 / DD-CD95-F2; format: cell-based; conditions: luminescence
# T2 construct: DD corresponds to amino acids 210 to 303 of CD95; expressed in transfected cells; host or cells: HEK293T
# T2 sequence (P25445 226-319 limits assumed): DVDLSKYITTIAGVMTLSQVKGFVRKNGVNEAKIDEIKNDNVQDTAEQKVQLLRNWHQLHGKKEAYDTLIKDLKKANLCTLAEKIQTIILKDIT
# T2 sequence (Q13158 97-181 limits assumed): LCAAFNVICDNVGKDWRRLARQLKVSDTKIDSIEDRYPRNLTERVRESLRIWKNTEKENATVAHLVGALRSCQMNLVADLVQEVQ
# Experimental: as §1, §2, §3, §4
# [3] = test system: CD95-mediated Ca2+ response in Th17 cells; assay: CD95-mediated Ca2+ response in Th17 cells (FIG. 5); format: cell-based, human; conditions: 1 μM, 1 h pre-incubation, cl-CD95L 100 ng/mL
# Experimental: All cells were purchased from ATCC (Molsheim Cedex, France). The T cell lines H9 and CEM were cultured in RPMI supplemented with 8% heat-inactivated FCS (v/v) and 2 mM L-glutamine at 37° C./5% CO2. HEK293T cells were cultured at 37° C./5% CO2 in DMEM supplemented with 8% heat-inactivated FCS and 2 mM L-glutamine. PBMCs were isolated from buffy-coat by density gradient centrifugation on lymphocyte separation medium (Eurobio, Les Ulis, France). Th17 cells (CD4+CCR6+CXCR3−) were sorted from PBMCs using a Th17 Enrichment kit (StemCell Technologies, Grenoble, France). Human umbilical vein endothelial cells (HUVEC) were grown in Endothelial Growth Medium (EGM) supplemented with 2% FCS and EGM-2 Bullet Kit (Lonza, Levallois-Perret, France).
# Th17 cells were pre-incubated for 1 h with TAT-control, minCID, or compound 13 (each at 1 μM), and then stimulated with cl-CD95L (100 ng/mL). [Ca^2+]CYT was assessed in Fluo2 LR-AM (2 μM)-loaded cells.
Compound,pIC50 [1],"pIC50 ([2]; HEK293T cells, exposed 4 h)",further results
CCCCCCCCCCCCCCCCCC(=O)N(CCN)C(CCCNC(=N)N)C(=O)NCCN(C(=O)CCCCCN)C(Cc1cnc[nH]1)C(=O)NCCN(C(=O)CCCCNC(=N)N)C(CCCCN)C(N)=O (centres unmarked) [Compound 1],4.46,4.48,–
N=C(N)NCCCCC(=O)N(CCNC(=O)C(Cc1cnc[nH]1)N(CCNC(=O)C(CCCNC(=N)N)N(CCN)C(=O)CCS)C(=O)CCCCCC(N)=O)C(CCCCN)C(N)=O (centres unmarked) [Compound 2],3.50,3.51,–
N=C(N)NCCCCC(=O)N(CCNC(=O)C(Cc1cnc[nH]1)N(CCNC(=O)C(CCCNC(=N)N)N(CCN)C(=O)CCS)C(=O)CCc1c[nH]c2ccccc12)C(CCCCN)C(N)=O (centres unmarked) [Compound 3],3.73,3.61,–
N=C(N)NCCCCC(=O)N(CCNC(=O)C(Cc1cnc[nH]1)N(CCNC(=O)C(CCCNC(=N)N)N(CCN)C(=O)CCS)C(=O)CCC1CNc2ccccc21)C(CCCCN)C(N)=O (centres unmarked) [Compound 4],3.69,3.61,–
N=C(N)NCCCCC(=O)N(CCNC(=O)C(Cc1cnc[nH]1)N(CCNC(=O)C(CCCNC(=N)N)N(CCN)C(=O)CCS)C(=O)CCc1ccc(O)cc1)C(CCCCN)C(N)=O (centres unmarked) [Compound 5],3.71,3.67,–
CC(O)C(N)C(=O)NCCN(C(=O)CCS)C(CCCNC(=N)N)C(=O)NCCN(C(=O)CCc1c[nH]c2ccccc12)C(Cc1c[nH]cn1)C(=O)NCCN(C(=O)CCCCNC(=N)N)C(CCCCN)C(N)=O (centres unmarked) [Compound 6],3.45,3.56,–
CC(O)C(N)C(=O)NCCN(C(=O)CCS)C(Cc1c[nH]c2ccccc12)C(=O)NCCN(C(=O)CCCCCN)C(Cc1cnc[nH]1)C(=O)NCCN(C(=O)CCCCNC(=N)N)C(CCCCN)C(N)=O (centres unmarked) [Compound 7],4.10,3.49,–
N=C(N)NCCCCC(=O)N(CCNC(=O)C(N)CS)C(CCCCN)C(=O)NCCN(C(=O)CCc1c[nH]cn1)C(CCCNC(=N)N)C(=O)NCCNC(=O)CCCCCN (centres unmarked) [Compound 10],3.40,3.35,–
CC(O)CC(=O)NC(CS)C(=O)NCCN(C(=O)CCCCNC(=N)N)C(CCCCN)C(=O)NCCN(C(=O)CCc1c[nH]cn1)C(CCCNC(=N)N)C(=O)NCCNC(=O)CCCCCN (centres unmarked) [Compound 11],3.51,3.20,–
CC(O)CC(=O)N(CCN)C(CS)C(=O)NCCN(C(=O)CCCCNC(=N)N)C(CCCCN)C(=O)NCCN(C(=O)CCc1c[nH]cn1)C(CCCNC(=N)N)C(=O)NCCNC(=O)CCCCCN (centres unmarked) [Compound 12],3.64,3.50,–
CC(O)C(N)C(=O)NCCN(C(=O)CCS)C(CCCNC(=N)N)C(=O)NCCN(C(=O)CCCCCN)C(Cc1cnc[nH]1)C(=O)NCCN(C(=O)CCCCNC(=N)N)C(CCCCN)C(N)=O (centres unmarked) [Compound 13],4.11,–,"IC50 DD-FADD/DD-CD95 ([2]; HEK293T cells, exposed 4 h): ns"
N=C(N)NCCCCC(=O)N(CCNC(=O)C(Cc1cnc[nH]1)N(CCNC(=O)C(CCCNC(=N)N)N(CCN)C(=O)CCS)C(=O)CCCCCN)C(CCCCN)C(N)=O (centres unmarked) [Compound 14],4.12,2.42,–
CCC(=O)N(CCN)C(CCCNC(=N)N)C(=O)NCCN(C(=O)CCCCCN)C(Cc1cnc[nH]1)C(=O)NCCN(C(=O)CCCCNC(=N)N)C(CCCCN)C(N)=O (centres unmarked) [Compound 15],4.22,3.79,–
N=C(N)NCCCCC(=O)N(CCNC(=O)C(Cc1cnc[nH]1)N(CCNC(=O)C(CCCNC(=N)N)N(CCN)C(=O)CCO)C(=O)CCCCCN)C(CCCCN)C(N)=O (centres unmarked) [Compound 16],4.10,2.41,–
N=C(N)NCCCCC(=O)N(CCNC(=O)C(Cc1cnc[nH]1)N(CCNC(=O)C(CCCNC(=N)N)N(CCN)C(=O)CCC(N)=O)C(=O)CCCCCN)C(CCCCN)C(N)=O (centres unmarked) [Compound 17],3.47,3.14,–
N=C(N)NCCCC(C(=O)NCCN(C(=O)CCCCCN)C(Cc1cnc[nH]1)C(=O)NCCN(C(=O)CCc1ccc(O)cc1)C(CCCCN)C(N)=O)N(CCN)C(=O)CCS (centres unmarked) [Compound 26],3.18,–,–
N=C(N)NCCCC(C(=O)NCCN(C(=O)CCCCCN)C(Cc1cnc[nH]1)C(=O)NCCN(C(=O)CCc1ccc(N)cc1)C(CCCCN)C(N)=O)N(CCN)C(=O)CCS (centres unmarked) [Compound 27],3.07,–,–
N=C(N)NCCCC(C(=O)NCCN(C(=O)CCCCCN)C(Cc1cnc[nH]1)C(=O)NCCN(C(=O)CCc1c[nH]c2ccccc12)C(CCCCN)C(N)=O)N(CCN)C(=O)CCS (centres unmarked) [Compound 28],3.46,2.58,–
N=C(N)NCCCCC(=O)N(CCNC(=O)C(Cc1cnc[nH]1)N(CCNC(=O)C(Cc1cccnc1)N(CCN)C(=O)CCS)C(=O)CCCCCN)C(CCCCN)C(N)=O (centres unmarked) [Compound 30],3.04,2.37,–
N=C(N)NCCCCC(=O)N(CCNC(=O)C(Cc1cnc[nH]1)N(CCNC(=O)C(Cc1c[nH]c2ccccc12)N(CCN)C(=O)CCS)C(=O)CCCCCN)C(CCCCN)C(N)=O (centres unmarked) [Compound 31],4.07,3.76,–
minCID: minimum domain of CID required for interaction with PLCγ1; amino acids 182-188 (TCRKHRK) (SEQ ID NO: 1) of human CD95; positive control (minCID corresponding to amino acids 182-188 of human CD95; listed as Homo sapiens) [reference compound],–,–,"disruption of the CD95/PLCγ1 interaction ([1]; HEK cells, 4 h, FIGS. 1A, 1B, 1C): disrupt the CD95/PLCγ1 interaction; CD95-mediated Ca2+ response in Th17 cells [3]: inhibited; effect on the CD95/FADD interaction ([2]; HEK cells, 4 h, FIGS. 1A, 1B, 1C (inset)): without affecting the CD95/FADD interaction"
